# Test system: 186277-243-T-J2-PDC complex spheroid viability
# Assay: Anticancer human tumor 186277-243-T-J2-PDC patient-derived colon adenocarcinoma cell line growth inhibition [POLQ]
# Conditions: for IC50: curve of first compound; for viability, T/C: stronger effect = lower value
# Summary of the method: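 PDC + HUVEC + MSC complex spheroids; POLQ inhibitors ± partner drugs; top conc. at/near clinical Cmax, else 10 microM (SN-38 1 microM), half-log dilutions; 37 degrees C, 5% CO2.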
# [1] = second compound 0.0316 µM, first compound 0.0316 µM
# [2] = second compound 0.0316 µM, first compound 0.1 µM
# [3] = second compound 0.0316 µM, first compound 0.316 µM
# [4] = second compound 0.0316 µM, first compound 1 µM
# [5] = second compound 0.1 µM, first compound 0.0316 µM
# [6] = second compound 0.1 µM, first compound 0.1 µM
# [7] = second compound 0.1 µM, first compound 0.316 µM
# [8] = second compound 0.1 µM, first compound 1 µM
# [9] = second compound 0.316 µM, first compound 0.0316 µM
# [10] = second compound 0.316 µM, first compound 0.1 µM
# [11] = second compound 0.316 µM, first compound 0.316 µM
# [12] = second compound 0.316 µM, first compound 1 µM
# [13] = second compound 1 µM, first compound 0.0316 µM
# [14] = second compound 1 µM, first compound 0.1 µM
# [15] = second compound 1 µM, first compound 0.316 µM
# [16] = second compound 1 µM, first compound 1 µM
# [17] = second compound 3.16 µM, first compound 0.0316 µM
# [18] = second compound 3.16 µM, first compound 0.1 µM
# [19] = second compound 3.16 µM, first compound 0.316 µM
# [20] = second compound 3.16 µM, first compound 1 µM
# [21] = second compound 10 µM, first compound 0.0316 µM
# [22] = second compound 10 µM, first compound 0.1 µM
# [23] = second compound 10 µM, first compound 0.316 µM
# [24] = second compound 10 µM, first compound 1 µM
# [25] = second compound 0.0316 µM, first compound 3.16 µM
# [26] = second compound 0.0316 µM, first compound 10 µM
# [27] = second compound 0.1 µM, first compound 3.16 µM
# [28] = second compound 0.1 µM, first compound 10 µM
# [29] = second compound 0.316 µM, first compound 3.16 µM
# [30] = second compound 0.316 µM, first compound 10 µM
# [31] = second compound 1 µM, first compound 3.16 µM
# [32] = second compound 1 µM, first compound 10 µM
# [33] = second compound 3.16 µM, first compound 3.16 µM
# [34] = second compound 3.16 µM, first compound 10 µM
# [35] = second compound 10 µM, first compound 3.16 µM
# [36] = second compound 10 µM, first compound 10 µM
# 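Also: spheroids exposed to compounds for seven days.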
# 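For viability, T/C in this document: 100% = DMSO vehicle control viability.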
structure (smiles),measurement,setting,value
C=CCn1c(=O)c2cnc(Nc3ccc(N4CCN(C)CC4)cc3)nc2n1-c1cccc(C(C)(C)O)n1 + Nc1ccc(C#CCN(C(=O)Cc2ncc(C(F)(F)F)cc2C(F)(F)F)c2ccc(F)cc2)nn1,IC50,second compound 0.0316 µM,212 nM
same,IC50,second compound 0.1 µM,224 nM
same,IC50,second compound 0.316 µM,229 nM
same,IC50,second compound 1 µM,214 nM
same,IC50,second compound 3.16 µM,211 nM
same,IC50,second compound 10 µM,204 nM
same,"viability, T/C","second compound 0.0316 µM, first compound 0.00316 µM",95%
same,"viability, T/C","second compound 0.0316 µM, first compound 0.01 µM",91.2%
same,"viability, T/C",[1],86.9%
same,"viability, T/C",[2],87.5%
same,"viability, T/C",[3],30.1%
same,"viability, T/C",[4],15.7%
same,"viability, T/C","second compound 0.1 µM, first compound 0.00316 µM",94.8%
same,"viability, T/C","second compound 0.1 µM, first compound 0.01 µM",107%
same,"viability, T/C",[5],109%
same,"viability, T/C",[6],99.5%
same,"viability, T/C",[7],28.8%
same,"viability, T/C",[8],15.1%
same,"viability, T/C","second compound 0.316 µM, first compound 0.00316 µM",88.5%
same,"viability, T/C","second compound 0.316 µM, first compound 0.01 µM",105%
same,"viability, T/C",[9],93%
same,"viability, T/C",[10],101%
same,"viability, T/C",[11],31.8%
same,"viability, T/C",[12],14.4%
same,"viability, T/C","second compound 1 µM, first compound 0.00316 µM",89.5%
same,"viability, T/C","second compound 1 µM, first compound 0.01 µM",101%
same,"viability, T/C",[13],101%
same,"viability, T/C",[14],93%
same,"viability, T/C",[15],28%
same,"viability, T/C",[16],12%
same,"viability, T/C","second compound 3.16 µM, first compound 0.00316 µM",109%
same,"viability, T/C","second compound 3.16 µM, first compound 0.01 µM",97.5%
same,"viability, T/C",[17],110%
same,"viability, T/C",[18],98.2%
same,"viability, T/C",[19],23.7%
same,"viability, T/C",[20],13.3%
same,"viability, T/C","second compound 10 µM, first compound 0.00316 µM",90.9%
same,"viability, T/C","second compound 10 µM, first compound 0.01 µM",98.1%
same,"viability, T/C",[21],100%
same,"viability, T/C",[22],96.5%
same,"viability, T/C",[23],21.3%
same,"viability, T/C",[24],11.2%
CC1COCCN1c1cc(C2(O)CC3CCC(C2)O3)c2cnn(-c3ccn[nH]3)c2n1 (stereo not drawn) + Cc1cccc(N(C)C(=O)C2C(O)CCN2c2nc(C)cc(C(F)(F)F)c2C#N)c1,IC50,second compound 0.0316 µM,43.3 nM
same,IC50,second compound 0.1 µM,42.2 nM
same,IC50,second compound 0.316 µM,44 nM
same,IC50,second compound 1 µM,42.6 nM
same,IC50,second compound 3.16 µM,37.7 nM
same,IC50,second compound 10 µM,< 31.6 nM
same,"viability, T/C",[1],64.5%
same,"viability, T/C",[2],11.7%
same,"viability, T/C",[3],6.18%
same,"viability, T/C",[4],3.85%
same,"viability, T/C",[25],4.2%
same,"viability, T/C",[26],4.79%
same,"viability, T/C",[5],63.9%
same,"viability, T/C",[6],8.95%
same,"viability, T/C",[7],5.9%
same,"viability, T/C",[8],3.73%
same,"viability, T/C",[27],3.97%
same,"viability, T/C",[28],3.76%
same,"viability, T/C",[9],65.4%
same,"viability, T/C",[10],12.1%
same,"viability, T/C",[11],4.75%
same,"viability, T/C",[12],3.38%
same,"viability, T/C",[29],4.54%
same,"viability, T/C",[30],3.64%
same,"viability, T/C",[13],63.3%
same,"viability, T/C",[14],12.2%
same,"viability, T/C",[15],5.42%
same,"viability, T/C",[16],3.92%
same,"viability, T/C",[31],4.12%
same,"viability, T/C",[32],4.45%
same,"viability, T/C",[17],57.4%
same,"viability, T/C",[18],9.6%
same,"viability, T/C",[19],5.36%
same,"viability, T/C",[20],3.46%
same,"viability, T/C",[33],4.49%
same,"viability, T/C",[34],4.05%
same,"viability, T/C",[21],45.9%
same,"viability, T/C",[22],8.7%
same,"viability, T/C",[23],4.15%
same,"viability, T/C",[24],3.16%
same,"viability, T/C",[35],4.29%
same,"viability, T/C",[36],3.09%
CC(C)n1c(=O)n(C)c2cnc3cc(F)c(-c4ccc(OCCCN5CCCCC5)nc4)cc3c21 + Nc1ccc(C#CCN(C(=O)Cc2ncc(C(F)(F)F)cc2C(F)(F)F)c2ccc(F)cc2)nn1,IC50,second compound 0.0316 µM,> 10000 nM
same,IC50,second compound 0.1 µM,> 10000 nM
same,IC50,second compound 0.316 µM,> 10000 nM
same,IC50,second compound 1 µM,> 10000 nM
same,IC50,second compound 3.16 µM,> 10000 nM
same,IC50,second compound 10 µM,> 10000 nM
same,"viability, T/C",[1],92.8%
same,"viability, T/C",[2],94%
same,"viability, T/C",[3],98.2%
same,"viability, T/C",[4],95.6%
same,"viability, T/C",[25],105%
same,"viability, T/C",[26],108%
same,"viability, T/C",[5],95.3%
same,"viability, T/C",[6],112%
same,"viability, T/C",[7],104%
same,"viability, T/C",[8],102%
same,"viability, T/C",[27],98.2%
same,"viability, T/C",[28],105%
same,"viability, T/C",[9],92.7%
same,"viability, T/C",[10],90.4%
same,"viability, T/C",[11],127%
same,"viability, T/C",[12],102%
same,"viability, T/C",[29],114%
same,"viability, T/C",[30],109%
same,"viability, T/C",[13],98.8%
same,"viability, T/C",[14],112%
same,"viability, T/C",[15],114%
same,"viability, T/C",[16],99.1%
same,"viability, T/C",[31],113%
same,"viability, T/C",[32],113%
same,"viability, T/C",[17],91.7%
same,"viability, T/C",[18],98.3%
same,"viability, T/C",[19],109%
same,"viability, T/C",[20],102%
same,"viability, T/C",[33],119%
same,"viability, T/C",[34],105%
same,"viability, T/C",[21],85.7%
same,"viability, T/C",[22],95.4%
same,"viability, T/C",[23],98.7%
same,"viability, T/C",[24],91.8%
same,"viability, T/C",[35],105%
same,"viability, T/C",[36],102%
O=C(c1cc(Cc2n[nH]c(=O)c3ccccc23)ccc1F)N1CCN(C(=O)C2CC2)CC1 + COC1C(OC(N)=O)C(O)C(Oc2ccc3c(O)c(NC(=O)c4ccc(O)c(CC=C(C)C)c4)c(=O)oc3c2C)OC1(C)C,IC50,second compound 0.0316 µM,> 10000 nM
same,IC50,second compound 0.1 µM,> 10000 nM
same,IC50,second compound 0.316 µM,> 10000 nM
same,IC50,second compound 1 µM,> 10000 nM
same,IC50,second compound 3.16 µM,> 10000 nM
same,IC50,second compound 10 µM,> 10000 nM
same,"viability, T/C",[1],117%
same,"viability, T/C",[2],105%
same,"viability, T/C",[3],106%
same,"viability, T/C",[4],92.3%
same,"viability, T/C",[25],123%
same,"viability, T/C",[26],66.7%
same,"viability, T/C",[5],98.7%
same,"viability, T/C",[6],102%
same,"viability, T/C",[7],95%
same,"viability, T/C",[8],97.3%
same,"viability, T/C",[27],119%
same,"viability, T/C",[28],63.2%
same,"viability, T/C",[9],98.5%
same,"viability, T/C",[10],111%
same,"viability, T/C",[11],109%
same,"viability, T/C",[12],94%
same,"viability, T/C",[29],109%
same,"viability, T/C",[30],66.1%
same,"viability, T/C",[13],90.7%
same,"viability, T/C",[14],101%
same,"viability, T/C",[15],109%
same,"viability, T/C",[16],102%
same,"viability, T/C",[31],107%
same,"viability, T/C",[32],65.9%
same,"viability, T/C",[17],101%
same,"viability, T/C",[18],105%
same,"viability, T/C",[19],114%
same,"viability, T/C",[20],90.1%
same,"viability, T/C",[33],103%
same,"viability, T/C",[34],63.9%
same,"viability, T/C",[21],101%
same,"viability, T/C",[22],91.6%
same,"viability, T/C",[23],101%
same,"viability, T/C",[24],115%
same,"viability, T/C",[35],126%
same,"viability, T/C",[36],66.2%

# Source: PubChem BioAssay AID1963854 (Molecular Pharmacology Branch, DTP, NCI, 2024)
